Values after ≈ are worked out from the molar mass of the structure shown. Read-outs that look alike come from different tables or passages of the source.
Tests used:
[1] = system: P. berghei sporozoites expressing luciferase; assay: in vitro liver stage activity, luciferase sporozoites infecting HEPG2 hepatoma cells; type: cell-based; conditions: Plasmodium berghei, HEPG2 cells
[2] = system: malarial strain W2 (pyrimethamine and chloroquine-resistant); assay: in vitro antimalarial activity against multidrug resistant strain W2; type: cell-based, P. falciparum; conditions: Plasmodium falciparum
[3] = system: Pb-infected mice; assay: in vivo efficacy scouting assay against blood stages; set-up: species or system P. berghei; mice; conditions: for activities in these scout assays: result in words; for inhibition in vivo at 50 mg/kg: Plasmodium berghei, 144 h, read-out: % Inhibition Day 6 PI
Experimental: The screening involved a single oral 50 mg/kg dose 1 day post infection (PI) and an assessment of parasitemia on days 3 PI and 6 PI (Table 6).
The screening was performed by treating two infected mice with a single 50 mg/kg oral dose of test compound suspended in PEG400 on day 1 postexposure (PE) followed by assessing parasitemia on days 3 and 6 PE.

[4] = aqueous solubility (LC/MS- or HPLC-based assay); type: physicochemical
Text: (§1) Furthermore, to profile the properties of the piperazinyl-4(1H)-quinolones, and to identify potential limitations, aqueous solubility and lipophilicity log D were experimentally determined via LC/MS-based assays as described by the Manetsch laboratory previously^8,10,31,32 (Tables 9-12). Encouragingly, the piperazinyl-4(1H)-quinolones were much more soluble than the previously described phenoxyethoxy-4(1H)-quinolone analogues.^19 As expected, the solubility of all compounds was affected by pH, with better solubility under more acidic conditions.
(§2) In parallel to testing the compounds for in vitro antimalarial activity, a limited structure-property relationship (SPR) study focusing on log D and aqueous solubility was conducted to assess potential physiochemical liabilities (FIG. 22). […] For these reasons, physicochemical properties were not strongly considered as selection criteria for in vivo efficacy studies.

[5] = lipophilicity log D at pH 7.4; type: physicochemical; conditions: octanol/water
Text: as §1, §2

[6] = system: J774 mammalian cells; assay: cytotoxicity to J774 cells; type: cell-based; conditions: Mus musculus, J774, read-out: EC50 J774 (μM)
Experimental: This allowed a simplified method for comparing the different assays being simultaneously run. Additionally, each compound was also tested for cytotoxicity using mammalian J774 cell lines in a 96-well plate format.^12-14, 16

[7] = system: malarial strain TM90-C2B (mefloquine, chloroquine, atovaquone, and pyrimethamine-resistant); assay: microbe, parasite or virus in culture; type: cell-based, P. falciparum; conditions: for EC50: Plasmodium falciparum, TM90, read-out: EC50 TM90-C2B (nM); for RI: RI = EC50 TM90-C2B/EC50 W2
Text: Ideally, the RI of a compound should lie between 0.3 and 3.0 in order to avoid rapidly inducing resistance in the parasite. […]

[8] = single oral 50 mg/kg dose 1 day PI, vs untreated animals
[9] = aqueous medium, pH 2, simulated gastric fluid, pH 2.0, read-out: Solubility pH 2.0
[10] = single oral 50 mg/kg dose 1 day PI
[11] = aqueous solution, pH 2, simulated gastric fluid, pH 2.0, read-out: Solubility pH 2.0
[12] = aqueous solution, pH 6.5, aqueous buffer, pH 6.5, read-out: Solubility pH 6.5
[13] = aqueous solution (buffer not named), pH 2, simulated gastric fluid, pH 2.0, read-out: Solubility pH 2.0
[14] = aqueous solution (buffer not named), pH 6.5, aqueous buffer, pH 6.5, read-out: Solubility pH 6.5
[15] = aqueous medium, pH 6.5, aqueous buffer, pH 6.5, read-out: Solubility pH 6.5

Compound | EC50 [1] | EC50 ([2]; read-out: EC50 W2 (nM)) | % Inhibition Day 6 PI [3, 8] | solubility [4, 9] | chromatographic logD [5] | EC50 [6] | EC50 [7] | activities in these scout assays [3, 10] | solubility [4, 11] | solubility [4, 12] | RI [7] | solubility [4, 13] | solubility [4, 14] | inhibition in vivo at 50 mg/kg [3, 8] | solubility [4, 15] | Solubility pH 2.0 (μM) ([4]; pH 2.0) | Solubility pH 6.5 (μM) ([4]; pH 6.5) | inhibition in vivo at 50 mg/kg ([3]; po) | % Inhibition Day 3 PI [3, 8] | EC50 ([2]; read-out: EC50 W2)
COC(=O)c1c[nH]c2cc(N3CCN(c4ccccc4)CC3)ccc2c1=O [Compound 8a, Methyl 4-oxo-7-(4-phenylpiperazin-1-yl)-1,4-dihydroquinoline-3-carboxylate] | 74.1 nM | 4.45 nM | little to moderate protection | 1 to 19.9 µM (≈ 0.363 to 7.23 µg/mL) | 2.58 | > 20 µM |  |  |  |  |  |  |  |  |  |  |  |  |  | 
COC(=O)c1c[nH]c2cc(CN3CCN(c4ccc(F)cc4)CC3)c(OC)cc2c1=O [Compound 8aa, Methyl 7-((4-(4-fluorophenyl)piperazin-1-yl)methyl)-6-methoxy-4-oxo-1,4-dihydroquinoline-3-carboxylate] | 32.3 nM | 1.79 nM | 56.9% |  | 1.31 | > 20 µM | 218 nM | excellent activities | 60 to 79.9 µM (≈ 25.5 to 34 µg/mL) | ≥ 80 µM |  |  |  |  |  |  |  |  |  | 
COC(=O)c1c[nH]c2ccc(CN3CCN(c4ccccc4)CC3)cc2c1=O [Compound 8af, Methyl 4-oxo-6-((4-phenylpiperazin-1-yl)methyl)-1,4-dihydroquinoline-3-carboxylate] | 90.5 nM | 151 nM |  |  | 2.03 | > 20 µM | 3200 nM |  |  |  | 21.2 | ≥ 80 µM | 20 to 39.9 µM (≈ 7.55 to 15.1 µg/mL) |  |  |  |  |  |  | 
COC(=O)c1c[nH]c2ccc(CN3CCN(c4ccc(OC)cc4)CC3)cc2c1=O [Compound 8ag, Methyl 6-((4-(4-methoxyphenyl)piperazin-1-yl)methyl)-4-oxo-1,4-dihydroquinoline-3-carboxylate] | > 100 nM | 164 nM | little to moderate protection |  | 1.91 | > 20 µM | 2900 nM |  |  |  | 17.7 | ≥ 80 µM | 20 to 39.9 µM (≈ 8.15 to 16.3 µg/mL) |  |  |  |  |  |  | 
COC(=O)c1c[nH]c2ccc(CN3CCN(c4ccc(C(F)(F)F)cc4)CC3)cc2c1=O [Compound 8ai, Methyl 4-oxo-6-((4-(4-(trifluoromethyl)phenyl)piperazin-1-yl)methyl)-1,4-dihydroquinoline-3-carboxylate] | 85 nM | 45.2 nM |  |  | 3.01 | > 20 µM | 2900 nM |  |  |  | 64.2 | ≥ 80 µM | 1 to 19.9 µM (≈ 0.445 to 8.86 µg/mL) |  |  |  |  |  |  | 
COC(=O)c1c[nH]c2cc(N3CCN(Cc4ccccc4)CC3)ccc2c1=O [Compound 8b, Methyl 7-(4-benzylpiperazin-1-yl)-4-oxo-1,4-dihydroquinoline-3-carboxylate] | 84.5 nM | 16.2 nM |  | 60 to 80 µM (≈ 22.6 to 30.2 µg/mL) | 2.21 | > 20 µM |  |  |  |  |  |  |  | ~40% | 60 to 80 µM (≈ 22.6 to 30.2 µg/mL) | 60-79.9 μM | 60-79.9 μM |  |  | 
COC(=O)c1c[nH]c2cc(N3CCN(c4ccc(OC)cc4)CC3)c(OC)cc2c1=O [Compound 8f, Methyl 6-methoxy-7-(4-(4-methoxyphenyl)piperazin-1-yl)-4-oxo-1,4-dihydroquinoline-3-carboxylate] | > 100 nM | 42.9 nM |  |  | 2.48 | > 20 µM | 1980 nM |  | 60 to 79.9 µM (≈ 25.4 to 33.8 µg/mL) | 20 to 39.9 µM (≈ 8.47 to 16.9 µg/mL) | 46.2 |  |  |  |  |  |  |  |  | 
COC(=O)c1c[nH]c2cc(N3CCN(Cc4ccccc4)CC3)c(C)cc2c1=O [Compound 8g, Methyl 7-(4-benzylpiperazin-1-yl)-6-methyl-4-oxo-1,4-dihydroquinoline-3-carboxylate] | > 100 nM | 13.2 nM |  | ≥ 80 µM | 2.37 | > 20 µM | 982 nM |  |  |  | 74.4 |  |  |  | ≥ 80 µM |  |  |  |  | 
COC(=O)c1c[nH]c2cc(CN3CCN(Cc4ccccc4)CC3)ccc2c1=O [Compound 8k, Methyl 7-((4-benzylpiperazin-1-yl)methyl)-4-oxo-1,4-dihydroquinoline-3-carboxylate] | 43.7 nM | 1.41 nM | little to moderate protection | ≥ 80 µM | 2.06 | 10.4 µM | 153 nM |  |  |  |  |  |  |  | ≥ 80 µM |  |  |  |  | 
COC(=O)c1c[nH]c2cc(CN3CCN(c4ccc(F)cc4)CC3)ccc2c1=O [Compound 8o, Methyl 7-((4-(4-fluorophenyl)piperazin-1-yl)methyl)-4-oxo-1,4-dihydroquinoline-3-carboxylate] | 1.06 nM | 1.75 nM |  |  | 2.38 | 2 µM | 131 nM | excellent activities | ≥ 80 µM | ≥ 80 µM | 74.9 |  |  |  |  |  |  | > 85% | full inhibition | 
COC(=O)c1c[nH]c2cc(CN3CCN(c4ccc(C(F)(F)F)cc4)CC3)ccc2c1=O [Compound 8p, Methyl 4-oxo-7-((4-(4-(trifluoromethyl)phenyl)piperazin-1-yl)methyl)-1,4-dihydroquinoline-3-carboxylate] | 15.6 nM | 0.315 nM | completely inhibited parasite growth |  | 3.23 | 10.7 µM | 122 nM | excellent activities | ≥ 80 µM | 1 to 19.9 µM (≈ 0.445 to 8.86 µg/mL) | 387 |  |  |  |  |  |  | > 85% | full inhibition | 
COC(=O)c1c[nH]c2cc(CN3CCN(c4ccccc4)CC3)c(C)cc2c1=O [Compound 8q, Methyl 6-methyl-4-oxo-7-((4-phenylpiperazin-1-yl)methyl)-1,4-dihydroquinoline-3-carboxylate] | 6.92 nM | 0.435 nM | little to moderate protection | ≥ 80 µM | 2.81 | 11.9 µM | 147 nM |  |  |  | 338 |  |  |  | 60 to 79.9 µM (≈ 23.5 to 31.3 µg/mL) |  |  |  |  | 
COC(=O)c1c[nH]c2cc(CN3CCN(Cc4ccccc4)CC3)c(C)cc2c1=O [Compound 8r, Methyl 7-((4-benzylpiperazin-1-yl)methyl)-6-methyl-4-oxo-1,4-dihydroquinoline-3-carboxylate] | 9.46 nM | 1.45 nM | little to moderate protection | ≥ 80 µM | 1.94 | > 20 µM | 890 nM |  |  |  |  |  |  |  | ≥ 80 µM |  |  |  |  | 
COC(=O)c1c[nH]c2cc(CN3CCN(c4ccc(OC)cc4)CC3)c(C)cc2c1=O [Compound 8t, Methyl 7-((4-(4-methoxyphenyl)piperazin-1-yl)methyl)-6-methyl-4-oxo-1,4-dihydroquinoline-3-carboxylate] | 4.11 nM | 0.575 nM |  |  | 2.61 | > 20 µM | 177 nM |  | ≥ 80 µM | 20 to 39.9 µM (≈ 8.43 to 16.8 µg/mL) | 308 |  |  |  |  |  |  |  |  | 
COC(=O)c1c[nH]c2cc(CN3CCN(c4ccc(F)cc4)CC3)c(C)cc2c1=O [Compound 8u, Methyl 7-((4-(4-fluorophenyl)piperazin-1-yl)methyl)-6-methyl-4-oxo-1,4-dihydroquinoline-3-carboxylate] | 2.64 nM | 0.843 nM |  |  | 2.9 | 15.7 µM | 348 nM |  | ≥ 80 µM | 40 to 59.9 µM (≈ 16.4 to 24.5 µg/mL) |  |  |  |  |  |  |  |  |  | 0.843 nM
COC(=O)c1c[nH]c2cc(CN3CCN(c4ccccc4)CC3)c(OC)cc2c1=O [Compound 8w, Methyl 6-methoxy-4-oxo-7-((4-phenylpiperazin-1-yl)methyl)-1,4-dihydroquinoline-3-carboxylate] | 113 nM | 1.62 nM | 82.4% | ≥ 80 µM | 1.32 | > 20 µM | 493 nM | excellent activities |  |  |  |  |  |  | ≥ 80 µM |  |  |  |  | 

Source: patent publication US10000452B1, “Quinolone-based compounds, formulations, and uses thereof” (University of South Florida, priority 2016, dated 2018)
